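Growth conditions: 96-well plates. Treatment: test compound, 48 hours, 5 concentrations. Analysis: linear interpolation between bracketing concentrations; unreached endpoints set to highest concentration. At the TGI there is no net growth.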
Assays:
Test in all cases: NCI tumour cell line growth inhibition, 48 h
[1] = test system: 786-0 renal
[2] = test system: A498 renal
[3] = test system: A549 NSCLC
[4] = test system: ACHN renal
[5] = test system: CAKI-1 renal
[6] = test system: CCRF-CEM leukemia
[7] = test system: COLO 205 colon
[8] = test system: DLD-1 colon
[9] = test system: DMS 114 small cell lung
[10] = test system: DMS 273 small cell lung
[11] = test system: EKVX NSCLC
[12] = test system: HCC-2998 colon
[13] = test system: HCT-116 colon
[14] = test system: HCT-15 colon
[15] = test system: HL-60(TB) leukemia
[16] = test system: HOP-62 NSCLC
[17] = test system: HOP-92 NSCLC
[18] = test system: HT29 colon
[19] = test system: IGROV1 ovarian
[20] = test system: K-562 leukemia
[21] = test system: KM12 colon
[22] = test system: KM20L2 colon
[23] = test system: LOX IMVI melanoma
[24] = test system: LXFL 529 NSCLC
[25] = test system: M14 melanoma
[26] = test system: M19-MEL melanoma
[27] = test system: MALME-3M melanoma
[28] = test system: MOLT-4 leukemia
[29] = test system: NCI-H226 lung
[30] = test system: NCI-H23 lung
[31] = test system: NCI-H460 lung
[32] = test system: NCI-H522 lung
[33] = test system: OVCAR-3 ovarian
[34] = test system: OVCAR-4 ovarian
[35] = test system: OVCAR-5 ovarian
[36] = test system: OVCAR-8 ovarian
[37] = test system: RPMI-8226 leukemia
[38] = test system: RXF 393 renal
[39] = test system: SF-268 CNS
[40] = test system: SF-295 CNS
[41] = test system: SF-539 CNS
[42] = test system: SK-MEL-2 melanoma
[43] = test system: SK-MEL-28 melanoma
[44] = test system: SK-MEL-5 melanoma
[45] = test system: SK-OV-3 ovarian
[46] = test system: SN12C renal
[47] = test system: SNB-19 CNS
[48] = test system: SNB-75 CNS
[49] = test system: SNB-78 CNS
[50] = test system: SW-620 colon
[51] = test system: TK-10 renal
[52] = test system: U251 CNS
[53] = test system: UACC-257 melanoma
[54] = test system: UACC-62 melanoma
[55] = test system: UO-31 renal
[56] = test system: XF 498 CNS
[57] = test system: SR leukemia

`COC(=O)/C(=N\NC(=O)c1ccccc1O)C(C#N)c1ccccc1` (stereo not given) gave a TGI [1] of over 50 µM, a TGI [2] of over 48.4 µM and a TGI [3] of over 50 µM. The TGI [4] was over 50 µM, the TGI [5] was over 50 µM and the TGI [6] was over 50 µM. The TGI [7] was over 50 µM, the TGI [8] was over 50 µM and the TGI [9] was over 50 µM. For the same molecule, the TGI [10] was over 50 µM, the TGI [11] was over 48.4 µM and the TGI [12] was over 50 µM. It also gave a TGI [13] of over 50 µM, a TGI [14] of over 50 µM and a TGI [15] of over 50 µM. For the same molecule, the TGI [16] was over 50 µM, the TGI [17] was over 50 µM and the TGI [18] was over 50 µM. The TGI [19] was over 50 µM, the TGI [20] was over 50 µM and the TGI [21] was over 50 µM. The TGI [22] was over 50 µM, the TGI [23] was over 50 µM and the TGI [24] was over 50 µM. The TGI [25] was over 50 µM, the TGI [26] was over 50 µM and the TGI [27] was over 50 µM. The TGI [28] was over 50 µM, the TGI [29] was 46.1 µM and the TGI [30] was over 40.7 µM. It also gave a TGI [31] of over 50 µM, a TGI [32] of over 50 µM and a TGI [33] of over 40.6 µM. The TGI [34] was over 50 µM, the TGI [35] was over 50 µM and the TGI [36] was over 50 µM. It also gave a TGI [37] of over 50 µM, a TGI [38] of 34.1 µM and a TGI [39] of over 50 µM. For the same molecule, the TGI [40] was over 50 µM, the TGI [41] was over 43.3 µM and the TGI [42] was over 50 µM. For the same molecule, the TGI [43] was over 50 µM, the TGI [44] was over 50 µM and the TGI [45] was over 50 µM. The TGI [46] was over 50 µM, the TGI [47] was over 50 µM and the TGI [48] was over 50 µM. The TGI [49] was over 50 µM, the TGI [50] was over 50 µM and the TGI [51] was over 50 µM. The TGI [52] was over 50 µM, the TGI [53] was over 50 µM and the TGI [54] was over 32.8 µM. For the same molecule, the TGI [55] was 37.6 µM and the TGI [56] was over 50 µM.
In the case of `CCOC(=O)C1CCCCN1C(=O)OCc1ccccc1` (stereo not given), the TGI [1] is reported as over 100 µM, the TGI [2] is reported as over 100 µM and the TGI [3] is reported as over 100 µM. The TGI [4] was over 100 µM, the TGI [5] was over 100 µM and the TGI [6] was over 100 µM. It also gave a TGI [8] of over 100 µM, a TGI [9] of over 100 µM and a TGI [10] of over 100 µM. The TGI [11] was over 100 µM, the TGI [13] was over 100 µM and the TGI [14] was over 100 µM. The TGI [15] was over 100 µM, the TGI [16] was over 100 µM and the TGI [18] was over 100 µM. The TGI [20] was over 100 µM, the TGI [21] was over 100 µM and the TGI [24] was over 100 µM. The TGI [25] was over 100 µM, the TGI [26] was over 100 µM and the TGI [28] was over 100 µM. The TGI [29] was over 100 µM, the TGI [30] was over 100 µM and the TGI [31] was over 100 µM. The TGI [32] was over 100 µM, the TGI [33] was over 100 µM and the TGI [34] was over 100 µM. For the same molecule, the TGI [35] was over 100 µM, the TGI [36] was over 100 µM and the TGI [38] was over 100 µM. For the same molecule, the TGI [39] was over 100 µM, the TGI [40] was over 100 µM and the TGI [41] was over 100 µM. It also gave a TGI [42] of over 100 µM, a TGI [43] of over 100 µM and a TGI [44] of over 100 µM. For the same molecule, the TGI [45] was over 100 µM, the TGI [46] was over 100 µM and the TGI [47] was over 100 µM. For the same molecule, the TGI [48] was over 100 µM, the TGI [49] was over 100 µM and the TGI [57] was over 100 µM. The TGI [50] was over 100 µM, the TGI [51] was over 100 µM and the TGI [52] was over 100 µM. The TGI [53] was over 100 µM, the TGI [54] was over 100 µM and the TGI [55] was over 100 µM. For the same molecule, the TGI [56] was over 100 µM.

Reference: PubChem BioAssay (NCI)
